In ChEMBL document CHEMBL1201862, “PubChem BioAssay data set” (2004):
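A five-concentration, 48-hour dose response in 96-well plates underlies each endpoint, interpolated linearly between surrounding concentrations. GI50: concentration for 50% inhibition of growth.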 The source made the active and inactive calls. No stated cut-off is given here; in the data, active = GI50 up to about 1.1 µM and inactive = higher.

Key:
Test in all cases: inhibition of tumour cell growth, NCI panel, 48 h
NCI-H226 = system: NCI-H226
SF-295 = system: SF-295
A549 = system: A549
SK-MEL-5 = system: SK-MEL-5
786-0 = system: 786-0
OVCAR-3 = system: OVCAR-3
HOP-62 = system: HOP-62
SN12C = system: SN12C
HCT-116 = system: HCT-116
SF-268 = system: SF-268
PC-3 = system: PC-3
SK-OV-3 = system: SK-OV-3
SF-539 = system: SF-539
MCF7 = system: MCF7
A498 = system: A498
CCRF-CEM = system: CCRF-CEM
IGROV-1 = system: IGROV-1
MOLT-4 = system: MOLT-4
M14 = system: M14

| SMILES | GI50 (NCI-H226) | GI50 (SF-295) | GI50 (A549) | GI50 (SK-MEL-5) | GI50 (786-0) | GI50 (OVCAR-3) | GI50 (HOP-62) | GI50 (SN12C) | GI50 (HCT-116) | GI50 (SF-268) | GI50 (PC-3) | GI50 (SK-OV-3) | GI50 (SF-539) | GI50 (MCF7) | GI50 (A498) | GI50 (CCRF-CEM) | GI50 (IGROV-1) | GI50 (MOLT-4) | GI50 (M14) |
| --- | --- | --- | --- | --- | --- | --- | --- | --- | --- | --- | --- | --- | --- | --- | --- | --- | --- | --- | --- |
| CCOc1c(Br)cc(Br)cc1C=C(C#N)C#N | 0.69 µM (active) | 7.53 µM (inactive) | > 10 µM (inactive) | 3.61 µM (inactive) | 7.01 µM (inactive) | > 10 µM (inactive) | > 10 µM (inactive) | 6.27 µM (inactive) | 0.405 µM (active) | 5.82 µM (inactive) | > 10 µM (inactive) | > 10 µM (inactive) | 3.36 µM (inactive) | 6.21 µM (inactive) | 1.49 µM (inactive) | 1.18 µM (inactive) | 4.29 µM (inactive) | 2.05 µM (inactive) | – |
| c1ccc(SCCc2ccncc2)cc1 | 77.1 µM (inactive) | 39.5 µM (inactive) | 84.5 µM (inactive) | 35.8 µM (inactive) | > 100 µM (inactive) | 40.6 µM (inactive) | > 100 µM (inactive) | > 100 µM (inactive) | > 100 µM (inactive) | > 100 µM (inactive) | > 100 µM (inactive) | > 100 µM (inactive) | > 100 µM (inactive) | 91.4 µM (inactive) | 70 µM (inactive) | 31.3 µM (inactive) | > 100 µM (inactive) | 17.7 µM (inactive) | 75 µM (inactive) |
| O=C1N/C(=N/N=C/c2c[nH]c3ccccc23)N/C1=C\c1c[nH]c2ccccc12 | 17 µM (inactive) | 21.4 µM (inactive) | 18.9 µM (inactive) | 19.6 µM (inactive) | 17.8 µM (inactive) | 14.7 µM (inactive) | 27 µM (inactive) | 34.9 µM (inactive) | 19.1 µM (inactive) | 20.4 µM (inactive) | 15.7 µM (inactive) | 35.9 µM (inactive) | 22.1 µM (inactive) | 16 µM (inactive) | 12.7 µM (inactive) | 7.74 µM (inactive) | 19.1 µM (inactive) | 10.5 µM (inactive) | 29 µM (inactive) |
| CCCCOCCOC1=CC(=O)c2c(O)ccc(O)c2C1=O | 1.72 µM (inactive) | 1.66 µM (inactive) | 1.75 µM (inactive) | 0.216 µM (active) | 1.67 µM (inactive) | 1.67 µM (inactive) | 0.458 µM (active) | 1.66 µM (inactive) | 1.49 µM (inactive) | 1.76 µM (inactive) | 2.59 µM (inactive) | > 10 µM (inactive) | 1.58 µM (inactive) | 1.31 µM (inactive) | 1.64 µM (inactive) | 1.22 µM (inactive) | 1.91 µM (inactive) | 1.28 µM (inactive) | 1 µM (active) |
| Cc1ncc(C/N=C/c2ccc(Cl)cc2)c(N)n1 | > 100 µM (inactive) | > 100 µM (inactive) | > 100 µM (inactive) | > 100 µM (inactive) | > 100 µM (inactive) | > 100 µM (inactive) | > 100 µM (inactive) | > 100 µM (inactive) | > 100 µM (inactive) | > 100 µM (inactive) | > 100 µM (inactive) | > 100 µM (inactive) | > 100 µM (inactive) | > 100 µM (inactive) | > 100 µM (inactive) | > 100 µM (inactive) | > 100 µM (inactive) | > 100 µM (inactive) | > 100 µM (inactive) |
| CCC(=O)O[C@H]1CC[C@H]2[C@@H]3CCC4=C/C(=N/OC(=O)c5cccc6c(=O)c7ccccc7[nH]c56)CC[C@]4(C)[C@H]3CC[C@]12C | 33.8 µM (inactive) | 29.9 µM (inactive) | 43.5 µM (inactive) | 22.8 µM (inactive) | 18.4 µM (inactive) | 18.3 µM (inactive) | 32.1 µM (inactive) | 42.9 µM (inactive) | – | 38.5 µM (inactive) | 26.9 µM (inactive) | > 100 µM (inactive) | 20.6 µM (inactive) | 20.9 µM (inactive) | 27.1 µM (inactive) | 14 µM (inactive) | 21.8 µM (inactive) | 17.9 µM (inactive) | 24.7 µM (inactive) |
| COc1ccc2c(c1)C(=O)[C@@](Nc1ccc(C=O)cc1)(OC)[C@@](OC)(c1ccc([N+](=O)[O-])cc1)O2 | 6.12 µM (inactive) | > 10 µM (inactive) | 7.67 µM (inactive) | > 10 µM (inactive) | > 10 µM (inactive) | > 10 µM (inactive) | > 10 µM (inactive) | > 10 µM (inactive) | > 10 µM (inactive) | > 10 µM (inactive) | 8.53 µM (inactive) | > 10 µM (inactive) | > 10 µM (inactive) | > 10 µM (inactive) | > 10 µM (inactive) | > 10 µM (inactive) | > 10 µM (inactive) | > 10 µM (inactive) | > 10 µM (inactive) |
| CC(C)(Cc1ccccc1)NC1=NCCO1 | > 100 µM (inactive) | > 100 µM (inactive) | > 100 µM (inactive) | > 100 µM (inactive) | > 100 µM (inactive) | > 100 µM (inactive) | – | – | > 100 µM (inactive) | – | > 100 µM (inactive) | > 100 µM (inactive) | > 100 µM (inactive) | > 100 µM (inactive) | > 100 µM (inactive) | > 100 µM (inactive) | > 100 µM (inactive) | > 100 µM (inactive) | > 100 µM (inactive) |
